Results from the supplement of paper PMC10307832.

Columns and labels:
Test in all cases: relative viability (nuclei count vs DMSO), 5 days (fraction); higher = more cells survive
Palbociclib + Trametinib = compound: CC(=O)c1c(C)c2cnc(Nc3ccc(N4CCNCC4)cn3)nc2n(C2CCCC2)c1=O [Palbociclib] + CC(=O)Nc1cccc(-n2c(=O)n(C3CC3)c(=O)c3c(Nc4ccc(I)cc4F)n(C)c(=O)c(C)c32)c1 [Trametinib] (partner 0.02 µM)
How it was run: (§1)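 Relative viability equals treated-well nuclei counts divided by vehicle-well nuclei counts. Counts came from 4× images of lung cancer cell lines grown in 1536-well plates for 5 days after pin-tool dosing on the day after seeding. Dosing used one drug alone or a fixed anchor-drug dose plus five library-drug doses (not always all listed) in √10 steps, and values are medians of duplicate plates.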

Palbociclib + Luminespib = compound: CC(=O)c1c(C)c2cnc(Nc3ccc(N4CCNCC4)cn3)nc2n(C2CCCC2)c1=O [Palbociclib] + CCNC(=O)c1noc(-c2cc(C(C)C)c(O)cc2O)c1-c1ccc(CN2CCOCC2)cc1 [Luminespib] (partner 0.01 µM)
How it was run: as §1

Palbociclib + OSI-027 = compound: CC(=O)c1c(C)c2cnc(Nc3ccc(N4CCNCC4)cn3)nc2n(C2CCCC2)c1=O [Palbociclib] + COc1cccc2cc(-c3nc([C@H]4CC[C@H](C(=O)O)CC4)n4ncnc(N)c34)[nH]c12 [OSI-027] (partner 0.5 µM)
How it was run: as §1

Palbociclib + AZD7762 = compound: CC(=O)c1c(C)c2cnc(Nc3ccc(N4CCNCC4)cn3)nc2n(C2CCCC2)c1=O [Palbociclib] + NC(=O)Nc1cc(-c2cccc(F)c2)sc1C(=O)N[C@H]1CCCNC1 [AZD7762] (partner 0.2 µM)
How it was run: as §1

Cell Line: LCLC-103H
- relative viability (Palbociclib + Trametinib; first compound 0.01 µM): 0.7
- relative viability (Palbociclib + Trametinib; first compound 0.03162 µM): 0.617
- relative viability (Palbociclib + Trametinib; first compound 0.1 µM): 0.686
- relative viability (Palbociclib + Trametinib; first compound 0.3162 µM): 0.654
- relative viability (Palbociclib + Trametinib; first compound 1 µM): 0.547
- relative viability (Palbociclib + Luminespib; first compound 0.01 µM): 0.978
- relative viability (Palbociclib + Luminespib; first compound 0.03162 µM): 0.808
- relative viability (Palbociclib + Luminespib; first compound 0.1 µM): 0.848
- relative viability (Palbociclib + Luminespib; first compound 0.3162 µM): 0.718
- relative viability (Palbociclib + Luminespib; first compound 1 µM): 0.584
- relative viability (Palbociclib + OSI-027; first compound 0.01 µM): 0.432
- relative viability (Palbociclib + OSI-027; first compound 0.03162 µM): 0.368
- relative viability (Palbociclib + OSI-027; first compound 0.1 µM): 0.406
- relative viability (Palbociclib + OSI-027; first compound 0.3162 µM): 0.358
- relative viability (Palbociclib + OSI-027; first compound 1 µM): 0.302
- relative viability (Palbociclib + AZD7762; first compound 0.01 µM): 0.731
- relative viability (Palbociclib + AZD7762; first compound 0.03162 µM): 0.55
- relative viability (Palbociclib + AZD7762; first compound 0.1 µM): 0.716
- relative viability (Palbociclib + AZD7762; first compound 0.3162 µM): 0.708
- relative viability (Palbociclib + AZD7762; first compound 1 µM): 0.539

Cell Line: LK-2
- relative viability (Palbociclib + Trametinib; first compound 0.01 µM): 0.788
- relative viability (Palbociclib + Trametinib; first compound 0.03162 µM): 0.676
- relative viability (Palbociclib + Trametinib; first compound 0.1 µM): 0.752
- relative viability (Palbociclib + Trametinib; first compound 0.3162 µM): 0.633
- relative viability (Palbociclib + Trametinib; first compound 1 µM): 0.708
- relative viability (Palbociclib + Luminespib; first compound 0.01 µM): 0.208
- relative viability (Palbociclib + Luminespib; first compound 0.1 µM): 0.166
- relative viability (Palbociclib + Luminespib; first compound 0.3162 µM): 0.191
- relative viability (Palbociclib + Luminespib; first compound 1 µM): 0.158
- relative viability (Palbociclib + OSI-027; first compound 0.01 µM): 0.208
- relative viability (Palbociclib + OSI-027; first compound 0.1 µM): 0.182
- relative viability (Palbociclib + OSI-027; first compound 0.3162 µM): 0.212
- relative viability (Palbociclib + OSI-027; first compound 1 µM): 0.162
- relative viability (Palbociclib + AZD7762; first compound 0.01 µM): 0.472
- relative viability (Palbociclib + AZD7762; first compound 0.03162 µM): 0.297
- relative viability (Palbociclib + AZD7762; first compound 0.1 µM): 0.374
- relative viability (Palbociclib + AZD7762; first compound 0.3162 µM): 0.338
- relative viability (Palbociclib + AZD7762; first compound 1 µM): 0.303

Cell Line: LOU-NH91
- relative viability (Palbociclib + Trametinib; first compound 0.01 µM): 0.798
- relative viability (Palbociclib + Trametinib; first compound 0.03162 µM): 0.662
- relative viability (Palbociclib + Trametinib; first compound 0.1 µM): 0.581
- relative viability (Palbociclib + Trametinib; first compound 0.3162 µM): 0.612
- relative viability (Palbociclib + Trametinib; first compound 1 µM): 0.62
- relative viability (Palbociclib + Luminespib; first compound 0.01 µM): 0.341
- relative viability (Palbociclib + Luminespib; first compound 0.03162 µM): 0.322
- relative viability (Palbociclib + Luminespib; first compound 0.1 µM): 0.271
- relative viability (Palbociclib + Luminespib; first compound 0.3162 µM): 0.348
- relative viability (Palbociclib + Luminespib; first compound 1 µM): 0.324
- relative viability (Palbociclib + OSI-027; first compound 0.01 µM): 0.706
- relative viability (Palbociclib + OSI-027; first compound 0.03162 µM): 0.587
- relative viability (Palbociclib + OSI-027; first compound 0.1 µM): 0.46
- relative viability (Palbociclib + OSI-027; first compound 0.3162 µM): 0.505
- relative viability (Palbociclib + OSI-027; first compound 1 µM): 0.44
- relative viability (Palbociclib + AZD7762; first compound 0.01 µM): 0.753
- relative viability (Palbociclib + AZD7762; first compound 0.03162 µM): 0.679
- relative viability (Palbociclib + AZD7762; first compound 0.1 µM): 0.62
- relative viability (Palbociclib + AZD7762; first compound 0.3162 µM): 0.572
- relative viability (Palbociclib + AZD7762; first compound 1 µM): 0.528

Cell Line: LU99A
- relative viability (Palbociclib + Trametinib; first compound 0.01 µM): 0.557
- relative viability (Palbociclib + Trametinib; first compound 0.1 µM): 0.523
- relative viability (Palbociclib + Trametinib; first compound 0.3162 µM): 0.573
- relative viability (Palbociclib + Trametinib; first compound 1 µM): 0.478
- relative viability (Palbociclib + Luminespib; first compound 0.01 µM): 0.254
- relative viability (Palbociclib + Luminespib; first compound 0.03162 µM): 0.201
- relative viability (Palbociclib + Luminespib; first compound 0.1 µM): 0.232
- relative viability (Palbociclib + Luminespib; first compound 0.3162 µM): 0.251
- relative viability (Palbociclib + Luminespib; first compound 1 µM): 0.2
- relative viability (Palbociclib + OSI-027; first compound 0.01 µM): 0.305
- relative viability (Palbociclib + OSI-027; first compound 0.03162 µM): 0.274
- relative viability (Palbociclib + OSI-027; first compound 0.1 µM): 0.221
- relative viability (Palbociclib + OSI-027; first compound 0.3162 µM): 0.238
- relative viability (Palbociclib + OSI-027; first compound 1 µM): 0.223
- relative viability (Palbociclib + AZD7762; first compound 0.01 µM): 0.405
- relative viability (Palbociclib + AZD7762; first compound 0.1 µM): 0.277
- relative viability (Palbociclib + AZD7762; first compound 0.3162 µM): 0.34
- relative viability (Palbociclib + AZD7762; first compound 1 µM): 0.27

Cell Line: LXF-289
- relative viability (Palbociclib + Trametinib; first compound 0.01 µM): 0.662
- relative viability (Palbociclib + Trametinib; first compound 0.03162 µM): 0.633
- relative viability (Palbociclib + Trametinib; first compound 0.1 µM): 0.632
- relative viability (Palbociclib + Trametinib; first compound 0.3162 µM): 0.619
- relative viability (Palbociclib + Trametinib; first compound 1 µM): 0.605
- relative viability (Palbociclib + Luminespib; first compound 0.01 µM): 0.627
- relative viability (Palbociclib + Luminespib; first compound 0.03162 µM): 0.71
- relative viability (Palbociclib + Luminespib; first compound 0.1 µM): 0.604
- relative viability (Palbociclib + Luminespib; first compound 0.3162 µM): 0.709
- relative viability (Palbociclib + Luminespib; first compound 1 µM): 0.554
- relative viability (Palbociclib + OSI-027; first compound 0.01 µM): 0.815
- relative viability (Palbociclib + OSI-027; first compound 0.03162 µM): 0.411
- relative viability (Palbociclib + OSI-027; first compound 0.1 µM): 0.697
- relative viability (Palbociclib + OSI-027; first compound 0.3162 µM): 0.734
- relative viability (Palbociclib + OSI-027; first compound 1 µM): 0.561
- relative viability (Palbociclib + AZD7762; first compound 0.01 µM): 1.03
- relative viability (Palbociclib + AZD7762; first compound 0.03162 µM): 0.692
- relative viability (Palbociclib + AZD7762; first compound 0.1 µM): 1.06
- relative viability (Palbociclib + AZD7762; first compound 0.3162 µM): 0.96
- relative viability (Palbociclib + AZD7762; first compound 1 µM): 0.779
